Our source for the IC50 values is patent US9193744B2, “Heterocyclic nuclear hormone receptor modulators” (AbbVie Inc., priority 2012, dated 2015).

Test [1] addresses T1, Glucocorticoid Receptor (GR) (Homo sapiens, UniProt P04150).
T1 construct: purchased Invitrogen P2893
T1 sequence (P04150 1-777): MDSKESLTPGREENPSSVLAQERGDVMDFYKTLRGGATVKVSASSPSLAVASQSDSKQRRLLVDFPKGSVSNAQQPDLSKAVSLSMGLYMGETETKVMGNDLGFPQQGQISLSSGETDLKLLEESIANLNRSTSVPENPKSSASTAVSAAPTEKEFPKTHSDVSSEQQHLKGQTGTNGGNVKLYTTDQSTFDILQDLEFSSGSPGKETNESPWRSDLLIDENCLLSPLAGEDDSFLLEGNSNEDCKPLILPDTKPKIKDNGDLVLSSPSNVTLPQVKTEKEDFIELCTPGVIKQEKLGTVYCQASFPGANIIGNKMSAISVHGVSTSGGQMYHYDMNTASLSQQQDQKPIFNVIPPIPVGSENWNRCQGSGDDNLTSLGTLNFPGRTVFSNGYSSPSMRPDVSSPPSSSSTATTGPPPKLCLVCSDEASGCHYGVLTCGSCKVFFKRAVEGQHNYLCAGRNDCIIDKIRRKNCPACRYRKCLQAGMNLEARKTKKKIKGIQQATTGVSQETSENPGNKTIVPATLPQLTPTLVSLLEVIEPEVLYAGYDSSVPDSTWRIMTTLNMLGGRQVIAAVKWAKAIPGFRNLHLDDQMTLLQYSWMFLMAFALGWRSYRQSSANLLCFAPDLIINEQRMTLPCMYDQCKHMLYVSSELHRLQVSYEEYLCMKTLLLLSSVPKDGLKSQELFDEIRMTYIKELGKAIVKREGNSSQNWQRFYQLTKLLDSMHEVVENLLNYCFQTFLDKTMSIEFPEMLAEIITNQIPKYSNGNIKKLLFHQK
Put plainly: GR Fluorescence Polarization Assay (PolarScreen Glucocorticoid Receptor Competitor Assay, Red). The conditions noted are these: fluorescence polarization binding ranges. As to the method: Fluorescence polarization assays were carried out using the PolarScreen™ Glucocorticoid Receptor Competitor Assay, Red from Invitrogen (P2893). The assay buffer was prepared according to the manufacturer's protocol and used to dilute the fluorescent glucocorticoid and GR. Compounds were prepared and serial diluted 1:4 in DMSO. Compound, fluorescent glucocorticoid and GR were added in a final volume of 20 μL and incubated overnight at 4° C. Fluorescent polarization was measured on the PerkinElmer Envision®. Fluorescence polarization binding ranges measured using GR Fluorescence Polarization Assay: […]
(Polarisation of emitted light reports the rotation of a fluorescent probe.)

For another test, the system named is IL-6. Put plainly: A549 Cell Assay to Measure Inflammation Markers (inhibition of IL-1β-induced IL-6). The format is cell-based. The conditions noted are these: A549 cells, read-out: A549 cell assay. As for the experimental part:
A549 Cell Assay to Measure Inflammation Markers
A549 cells were seeded (3E4 cells/well) in 96-well assay plates in culture medium (100 μL/well., F-12 K base media, supplemented with 10% FBS and 100 μ/mL-100 μg/mL Pen-Strep.) After overnight culture in an incubator set to 37° C., 4.9% CO2, and 90% humidity, media was removed from adherent cells by aspiration and replaced with 100 μL/well Assay Medium (F-12 K base media supplemented with 5% charcoal stripped calf sera and 100 U/mL-100 μg/mL Pen-Strep.) Compounds were prepared in DMSO and serial diluted (1:3, 1:4, or 1:5) with DMSO in Dilution Plate(s) to give 10 dilution points for each compound tested. Further dilution (1:250) of compound was made into assay medium and 50 μL/well diluted drug or DMSO/media control was applied to cells. After a 1 h pre-incubation in a temperature, CO2, and humidity controlled incubator, set to 37° C., 50 μL/well of 4 ng/mL IL-1β diluted in assay media, was applied to cultures. Assay plates, with a final volume of 200 μL/well and final concentrations of 0.1% DMSO and 1 ng/mL IL-1β were returned to incubator for a four h incubation period. Next, plates were spun at 183 g (1000 rpm in Beckman/Coulter Allegra 6KR centrifuge) for 10 min. Cell-free supernatant (150 μL/well) was collected and IL-6 was measured by MSD kit, following protocol of manufacturer, and using MSD SECTOR Imager 6000 instrument. Potency of compounds to inhibit IL-6 was determined using the percent reduction of measured IL-6 in wells with compound compared to control wells without drug, and relative to (100% inhibition) positive control compound of 1 μM prednisolone. Results were represented as IC50 and Emax values. To verify that viable cell numbers were similar across plate(s), and not confounding compound IC50 data interpretation, the remaining 50 μL/well of cells and media (after removal of supernatant) were used to run Cell Titer-Glo Assay per directions of manufacturer.

Like-named read-outs stand apart in the source and are kept apart here. Where only a bound is given, the exact number is not on record here.

Regarding `CC[C@]12C[C@@H](O)[C@@](O)(C(F)(F)F)C[C@@H]1CCCc1cc3c(cnn3-c3ccc(F)cc3)cc12` (single isomer, unassigned) [Example 122], the IC50 (in test [1]; in the test with IL-6 (Homo sapiens)) was less than 100 nM each time.
For `CC[C@@]12CC[C@](O)(COC)C[C@@H]1CCCc1cc3c(cnn3-c3ccncc3)cc12` (single isomer, unassigned) [Example 123], the IC50 (in test [1]; in the test on IL-6 (Homo sapiens)) was less than 100 nM in each case.
Regarding `CC[C@@]12CC[C@](O)(COC)C[C@@H]1CCOc1cc3c(cnn3-c3ccnc(C)c3)cc12` (single isomer, unassigned) [Example 128], the IC50 (in test [1]; in the test on IL-6 (Homo sapiens)) was less than 100 nM each time.
As to `CC[C@@]12CC[C@](O)(C(F)(F)F)C[C@H]1CCOc1cc3c(cnn3-c3ccc(F)cc3)cc12` (single isomer, unassigned) [Example 146], the IC50 (in test [1]; with IL-6 (Homo sapiens)) was less than 100 nM throughout.
In the case of `CC[C@]12CC[C@@](O)(C(F)(F)F)C[C@@H]1CCOc1cc3c(cnn3-c3ccc(F)cc3)cc12` (single isomer, unassigned) [Example 147], the IC50 in test [1] is less than 100 nM; in the test with IL-6 (Homo sapiens) it was 100 to 1000 nM.
The corresponding values for `C[C@@]1(O)CC[C@@]2(Cc3ccccn3)c3cc4cnn(-c5ccc(F)cc5)c4nc3CCC[C@H]2C1` (single isomer, unassigned) [Example 149] are less than 100 nM and less than 100 nM.
The corresponding values for `CC[C@]12CC[C@@](O)(C(F)(F)F)C[C@@H]1CCCc1nc3c(cnn3-c3ccc(F)cc3)cc12` (single isomer, unassigned) [Example 153] are 100 to 1000 nM and greater than 10000 nM.
In the case of `CC[C@@]12CC[C@](O)(C(F)(F)F)C[C@H]1CCCc1nc3c(cnn3-c3ccc(F)cc3)cc12` (single isomer, unassigned) [Example 154], the IC50 (in test [1]; in the test with IL-6 (Homo sapiens)) was less than 100 nM in each case.
As to `C[C@]1(O)CC[C@]2(Cc3ccccn3)c3cc4cnn(-c5ccncc5)c4cc3CCC[C@@H]2C1` [Example 31], the figures for the IC50 (in test [1]; with IL-6) were 100 to 1000 nM and less than 100 nM, respectively.
Turning to `CCOC[C@@]1(O)CC[C@@]2(Cc3ccccn3)c3cc4cnn(-c5ccc(F)cc5)c4cc3CCC[C@H]2C1` [Example 32], the IC50 (in test [1]; in the test with IL-6) was less than 100 nM throughout.
As for `CCOC[C@]1(O)CC[C@]2(Cc3ccccn3)c3cc4cnn(-c5ccc(F)cc5)c4cc3CCC[C@@H]2C1` [Example 33], the IC50 (in test [1]; in the test with IL-6) was less than 100 nM each time.
As for `CC[C@]12CC[C@@](O)(COC)C[C@H]1CCCc1cc3c(cnn3-c3ccc(F)cc3)cc12` [Example 34], the figures for the IC50 (in test [1]; with IL-6) were less than 100 nM and greater than 10000 nM, respectively.
Turning to `CC[C@@]12CC[C@](O)(COC)C[C@@H]1CCCc1cc3c(cnn3-c3ccc(F)cc3)cc12` [Example 35], the IC50 (in test [1]; with IL-6) was less than 100 nM in each case.
Take `COC[C@]1(O)CC[C@]2(Cc3ncccn3)c3cc4cnn(-c5ccc(F)cc5)c4cc3CCC[C@@H]2C1` [Example 36]: the IC50 is less than 100 nM in test [1] and greater than 10000 nM in the test with IL-6.
For `CC[C@@]12CC[C@](O)(COC)C[C@H]1CCCc1cc3c(cnn3-c3ccc(F)cc3)cc12` [Example 37], the IC50 (in test [1]; in the test on IL-6) was less than 100 nM each time.
Turning to `COC[C@]1(O)CC[C@]2(CC3CC3)c3cc4cnn(-c5ccc(F)cc5)c4cc3CCC[C@@H]2C1` [Example 39], the IC50 (in test [1]; in the test with IL-6) was less than 100 nM each time.
`COC[C@@]1(O)CC[C@@]2(CC3CC3)c3cc4cnn(-c5ccc(F)cc5)c4cc3CCC[C@H]2C1` [Example 40]: the IC50 (in test [1]; in the test with IL-6) was less than 100 nM in each case.
`COC[C@@]1(O)CC[C@@]2(Cc3ncccn3)c3cc4cnn(-c5ccc(F)cc5)c4cc3CCC[C@H]2C1` [Example 41]: the IC50 (in test [1]; with IL-6) was less than 100 nM throughout.
In the case of `CC[C@]12CC[C@@](O)(COC)C[C@H]1CCCc1cc3c(cnn3-c3cccnc3)cc12` [Example 43], the results for the IC50 (in test [1]; in the test on IL-6) were less than 100 nM and greater than 10000 nM, respectively.
On to `CC[C@@]12CC[C@](O)(COC)C[C@@H]1CCCc1cc3c(cnn3-c3cccnc3)cc12` [Example 44], for which the IC50 (in test [1]; in the test with IL-6) was less than 100 nM in each case.
For `CC[C@]12CC[C@@](O)(COC)C[C@H]1CCCc1cc3c(cnn3-c3ccccn3)cc12` [Example 46], the results for the IC50 (in test [1]; with IL-6) were 100 to 1000 nM and greater than 10000 nM, respectively.
The corresponding values for `CC[C@@]12CC[C@](O)(COC)C[C@@H]1CCCc1cc3c(cnn3-c3ccccn3)cc12` [Example 47] are less than 100 nM and less than 100 nM.
In the case of `COC[C@]1(O)CC[C@]2(Cc3ccccn3)c3cc4cnn(-c5ccncc5)c4cc3CCC[C@@H]2C1` [Example 48], the figures for the IC50 (in test [1]; with IL-6) were 100 to 1000 nM and less than 100 nM, respectively.
The corresponding values for `COC[C@@]1(O)CC[C@@]2(Cc3ccccn3)c3cc4cnn(-c5ccncc5)c4cc3CCC[C@H]2C1` [Example 49] are less than 100 nM and less than 100 nM.
The corresponding values for `CC[C@]12CC[C@](C)(O)C[C@H]1CCCc1cc3c(cnn3-c3ccc(F)cc3)cc12` [Example 53] are less than 100 nM and less than 100 nM.
The corresponding values for `CC[C@@]12CC[C@@](C)(O)C[C@@H]1CCCc1cc3c(cnn3-c3ccc(F)cc3)cc12` [Example 54] are less than 100 nM and less than 100 nM.
In the case of `C[C@@]1(O)CC[C@@]2(Cc3ncccn3)c3cc4cnn(-c5ccc(F)cc5)c4cc3CCC[C@H]2C1` [Example 55], the IC50 (in test [1]; with IL-6) was less than 100 nM each time.
As to `C[C@]1(O)CC[C@]2(Cc3ncccn3)c3cc4cnn(-c5ccc(F)cc5)c4cc3CCC[C@@H]2C1` [Example 56], the IC50 in test [1] was 100 to 1000 nM; with IL-6, greater than 10000 nM.
As for `C[C@@]1(O)CC[C@@]2(CC3CC3)c3cc4cnn(-c5ccc(F)cc5)c4cc3CCC[C@H]2C1` [Example 57], the IC50 (in test [1]; with IL-6) was less than 100 nM throughout.
Take `C[C@]1(O)CC[C@]2(CC3CC3)c3cc4cnn(-c5ccc(F)cc5)c4cc3CCC[C@@H]2C1` [Example 58]: the IC50 (in test [1]; in the test with IL-6) was less than 100 nM in each case.
Consider `Cc1cc(-n2ncc3cc4c(cc32)CCC[C@H]2C[C@](C)(O)CC[C@@]42Cc2ccccn2)ccn1` [Example 60], for which the IC50 (in test [1]; with IL-6) was less than 100 nM in each case.
`N#CC[C@@]1(O)CC[C@@]2(Cc3ncccn3)c3cc4cnn(-c5ccc(F)cc5)c4cc3CCC[C@H]2C1` [Example 62]: the IC50 (in test [1]; in the test with IL-6) was less than 100 nM in each case.
In the case of `N#CC[C@]1(O)CC[C@]2(Cc3ncccn3)c3cc4cnn(-c5ccc(F)cc5)c4cc3CCC[C@@H]2C1` [Example 63], the IC50 (in test [1]; in the test on IL-6) was less than 100 nM in each case.
`CC[C@]12CC[C@@](O)(CC#N)C[C@H]1CCCc1cc3c(cnn3-c3ccc(F)cc3)cc12` [Example 64]: the IC50 (in test [1]; in the test on IL-6) was less than 100 nM in each case.
As to `CC[C@@]12CC[C@](O)(CC#N)C[C@@H]1CCCc1cc3c(cnn3-c3ccc(F)cc3)cc12` [Example 65], the IC50 (in test [1]; with IL-6) was less than 100 nM in each case.
As for `N#CC[C@]1(O)CC[C@]2(CC3CC3)c3cc4cnn(-c5ccc(F)cc5)c4cc3CCC[C@@H]2C1` [Example 66], the IC50 (in test [1]; in the test with IL-6) was less than 100 nM in each case.
